Laboratory results reported in US5451506A, “Oncostatin M and novel compositions having anti-neoplastic activity” (Oncogen Limited Partnership, priority 1993, dated 1995).

Legend:
[1] = tested on: A375 melanoma cells; assay: Cell growth modulatory assay using 3H-thymidine incorporation into DNA (GIA); format: cell-based, human; parameters: Observed % Inhibition of 3H-TdR Incorporation: concentration or dose not given beside the values
Protocol: (§1) The assays were performed in 96 flat well plates (Costar 3596). Human melanoma cells (A375) (3×10^3 /100 μl) or cells from another cell line of interest were at an appropriate cell density used. Cells in 100 μl growth medium were placed in each well. Three hours later, 100 μl of test sample in growth medium was added to each well. Plates were incubated at 37° C. for 3 days. Then 25 μl (0.5 μCi) of a solution of ^3 H-thymidine (specific activity 27 μCi/μg) was added to each well for the final 6 hours of incubation. The cells were then transferred to glass filter strips using a multiwell harvester (PHD Cell Harvester, Cambridge Technology, Inc.). The filters were transferred to scintillation vials. Two ml of scintillation fluid (ScientiVerse II, Fisher Scientific Co.) was added and the samples counted in a scintillation counter to quantitate ^3 H-thymidine incorporation.

[2] = tested on: A375 melanoma cells; assay: Soft agar colony inhibition assay (TGI); format: cell-based, human; conditions: 11 days; for # Colonies: untreated 106
Protocol: A 0.5 ml base layer of 0.5% agar (Agar Noble; Difco Laboratories, Detroit, Mich.) in growth medium was added to 24-well Costar tissue culture plates. One-half ml 0.3% agar in growth medium containing 1 to 2.5×10^3 A375 cells or other cell line of interest at an appropriate cell density, and various concentrations of the factor to be tested were overlaid on the base layer of agar. The plates were incubated at 37° C. in a humidified atmosphere of 5% CO2 in air and refed after 7 days by addition of 0.5 ml of 0.3% agar in growth medium containing the same concentration of the factor to be tested as used previously. Colonies were enumerated unfixed and unstained. The number of colonies with greater than 6 cells were scored.
A375 cells were plated in soft agar, with or without the indicated GIA units of Oncostatin M (see Table 3), as described above in Example 1C. The factor used was from a C18^3 propanol column fraction with peak tumor growth inhibitory activity (GIA). The number of colonies was enumerated at 11 days.

[3] = tested on: SK-MEL28 melanoma cells; assay: Cell growth modulatory assay using 3H-thymidine incorporation into DNA (GIA); format: cell-based, human
Protocol: as §1
(§2) Human tumor cells (A375 melanoma cells, A549 lung cancer cells, HBT10 neuroblastoma cells, and SK-MEL28 melanoma cells) were seeded at 3×10^3 cells/well and normal fibroblasts (WI26 cells and WI38 cells) at 1.5×10^3 cells/well in 96-well plates. Various concentrations of purified Oncostatin M, obtained from the fraction from the C18^3 column with peak antiproliferative activity against A375 cells were used. The assay was performed as described in Example 1B above.

[4] = tested on: WI26 fibroblasts; assay: as above; format: cell-based, human
Protocol: as §1, §2

[5] = tested on: WI38 fibroblasts; assay: as above; format: cell-based, human
Protocol: as §1, §2

[6] = tested on: MCF-7 breast tumor cells; assay: Inhibition of 3H-TdR incorporation, Oncostatin M and TNF-α; format: cell-based, human; conditions: MCF-7 Cells
Protocol: as §1
Inhibition of ^3 H-TdR incorporation into A375 cells and MCF-7 cells were compared using the assay described in Example 1B, above. The cells were treated with either Oncostatin M alone, TNF-α (Amgen Biologicals, human recombinant TNF-α) alone, or with a combination of Oncostatin M and TNF-α.

[7] = tested on: Mouse L929 cells; assay: Effect on mouse L929 cells; format: cell-based; conditions: mouse L929 cells, sensitive to tumor necrosis factor
Protocol: The ability of PBL-derived Oncostatin M to affect replication of a variety of cells was also investigated. Mouse L929 cells were insenstive to PBL-derived Oncostatin M using up to 1000 GIA units/ml. Growth of human fibroblasts, WI26, was stimulated by treatment with 1000 GIA units/ml. Normal human T-lymphocyte proliferation at 72 hours post mitogenesis was not affected by up to 500 GIA units/ml.

[8] = tested on: bone marrow cells; assay: Granulocytic/myelocytic colony formation from bone marrow cells; format: cell-based; conditions: concentrations up to 100 GIA units/ml
[9] = tested on: A375 cells; assay: Effect of acid, base and heat treatments on tumor growth inhibitory activity; format: cell-based, human
Protocol: as §1
U937 cells (RPMI 1640+5% FCS seeded at 7.5×10^5 cells/ml) were treated with TPA (10 ng/ml) for 3 days. The cells were then washed with medium (serum-free RPMI 1640) and incubated for 24 hr in serum-free (serum-free RPMI 1640) medium before collecting the supernatants. The supernatants were treated with 1N acetic acid or 1N ammonium hydroxide. They were then dialyzed against medium (serum-free RPMI 1640) and tested for their ability to inhibit ^3 H-thymidine incorporation into A375 cells using the assay as described in Example 1B

[10] = tested on: HTB10 neuroblastoma cells; assay: Cell growth modulatory assay using 3H-thymidine incorporation into DNA (GIA); format: cell-based, human
Protocol: as §1
(§3) The effect of Oncostatin M on various cell lines was assessed using a cell growth modulatory assay performed as described in Example 1B, above. The cell lines tested included A549 lung cancer cells. HTB10 neuroblastoma cells, and A375 melanoma cells.

[11] = tested on: A549 lung cancer cells; assay: as above; format: cell-based, human
Protocol: as §1, §3

Oncostatin M: Human polypeptide growth regulator produced by activated leukocytes; apparent molecular weight approximately 28 kD by PAGE
GIA Units to Cause 30% Inhibition 3H-TDR Incorporation ([1]; A375 (melanoma)): 0.3 GIA Units
concentration to cause 30% inhibition 3H-TdR ([1]; A375, based upon the specific activity of purified Oncostatin M): ~0.015 ng/mL
Observed % Inhibition of 3H-TdR Incorporation ([1]; A375 Cells): 17%
% Inhibition of 3H-thymidine incorporated ([1]; Exp. 1, A375, 1 GIA units/well): 46%
% Inhibition of 3H-thymidine incorporated ([1]; Exp. 1, A375, 4 GIA units/well): 62%
% Inhibition of 3H-thymidine incorporated ([1]; Exp. 1, A375, 16 GIA units/well): 83%
% Inhibition of 3H-thymidine incorporated ([1]; Exp. 2, A375, 3 GIA units/well): 76%
% Inhibition of 3H-thymidine incorporated ([1]; Exp. 2, A375, 9 GIA units/well): 87%
% Inhibition of 3H-thymidine incorporated ([1]; Exp. 3, A375, 8 GIA units/well): 71%
% Inhibition of 3H-thymidine incorporated ([1]; Exp. 3, A375, 25 GIA units/well): 85%
% Inhibition of 3H-thymidine incorporated ([1]; Exp. 3, A375, 75 GIA units/well): 89%
% Inhibition of 3H-thymidine incorporated ([1]; Exp. 4, A375, 1 GIA units/well): 59%
% Inhibition of 3H-thymidine incorporated ([1]; Exp. 4, A375, 5 GIA units/well): 75%
% Inhibition of 3H-thymidine incorporated ([1]; Exp. 4, A375, 20 GIA units/well): 87%
Growth inhibitory activity contained in the fraction ([1]; apparently homogeneous C18^3 fraction, approximately 300 ng protein): about 40,000 GIA units
Proliferation of A375 cells ([1]; protein electroeluted from the 28 kD band, non-reducing PAGE): inhibit proliferation of A375 cells
% Inhibition of Colony Formation ([2]; 27 GIA Units/Well): 89%
# Colonies ([2]; 27 GIA Units/Well): 11
% Inhibition of Colony Formation ([2]; 45 GIA Units/Well): 69%
# Colonies ([2]; 45 GIA Units/Well): 32
% Inhibition of Colony Formation ([2]; 83 GIA Units/Well): 94%
# Colonies ([2]; 83 GIA Units/Well): 6
% Inhibition of Colony Formation ([2]; 250 GIA Units/Well): 96%
# Colonies ([2]; 250 GIA Units/Well): 4
% Inhibition of 3H-thymidine incorporated ([3]; Exp. 4, SK-MEL28, 1 GIA units/well): 11%
% Inhibition of 3H-thymidine incorporated ([3]; Exp. 4, SK-MEL28, 5 GIA units/well): 25%
% Inhibition of 3H-thymidine incorporated ([3]; Exp. 4, SK-MEL28, 20 GIA units/well): 44%
% Stimulation of 3H-thymidine incorporated ([4]; Exp. 2, WI26, 3 GIA units/well): 52%
% Stimulation of 3H-thymidine incorporated ([4]; Exp. 2, WI26, 9 GIA units/well): 36%
% Stimulation of 3H-thymidine incorporated ([4]; Exp. 2, WI26, 27 GIA units/well): 46%
Cytotoxic activity ([4]; WI26 human fibroblasts): lacks cytotoxic activity
% Stimulation of 3H-thymidine incorporated ([5]; Exp. 1, WI38, 1 GIA units/well): 46%
% Stimulation of 3H-thymidine incorporated ([5]; Exp. 1, WI38, 4 GIA units/well): 30%
% Stimulation of 3H-thymidine incorporated ([5]; Exp. 1, WI38, 16 GIA units/well): 25%
Cytotoxic activity ([5]; WI38 human fibroblasts): lacks cytotoxic activity
Observed % Inhibition of 3H-TdR Incorporation [6]: 18%
Cytotoxic activity [7]: lacks cytotoxic activity
Granulocytic/myelocytic colony formation [8]: does not inhibit granulocytic/myelocytic colony formation
Resistance to inactivation by acid and base ([9]; 1N acetic acid and 1N ammonium hydroxide, dialyzed supernatant): substantially resistant to inactivation
Heat stability of activity ([9]; 56° C. for 1 hr): retain its activity
Heat stability of activity ([9]; 95° C. for 30 min): lose substantially all its activity
% Inhibition of 3H-thymidine incorporated ([10]; Exp. 2, HTB10, 3 GIA units/well): 11%
% Inhibition of 3H-thymidine incorporated ([10]; Exp. 2, HTB10, 9 GIA units/well): 22%
% Inhibition of 3H-thymidine incorporated ([10]; Exp. 2, HTB10, 27 GIA units/well): 28%
GIA Units to Cause 30% Inhibition 3H-TDR Incorporation ([10]; HTB10 (neuroblastoma)): 81.0 GIA Units
concentration to cause 30% inhibition 3H-TdR ([10]; HTB10, based upon the specific activity of purified Oncostatin M): ~4.0 ng/mL
GIA Units to Cause 30% Inhibition 3H-TDR Incorporation ([11]; A549 (lung cancer)): 21.0 GIA Units
concentration to cause 30% inhibition 3H-TdR ([11]; A549, based upon the specific activity of purified Oncostatin M): approximately 1.4 ng/ml
% Inhibition of 3H-thymidine incorporated ([11]; Exp. 3, A549, 8 GIA units/well): 16%
% Inhibition of 3H-thymidine incorporated ([11]; Exp. 3, A549, 25 GIA units/well): 22%
% Inhibition of 3H-thymidine incorporated ([11]; Exp. 3, A549, 75 GIA units/well): 30%
